Results: patent publication US20100286186A1, “NOVEL DICARBOXYLIC ACID LINKED AMINO ACID AND PEPTIDE PRODRUGS OF OPIOIDS AND USES THEREOF” (Shire LLC, priority 2009, published 2010)
“And” between values parts separate entries of the source, which are not always exact repeats. Equal values may be shown once. Marks after values point to notes of the source that are not given here.

Legend:
[1] = test system: guinea pig small intestine myenteric plexus longitudinal muscle; test: Ex vivo smooth muscle contractility, electrical field stimulation response of isolated guinea pig small intestine; settings: for EC50: Cavia porcellus, isolated guinea pig ileum, concentration as free base of opioid, read-out: EC50, opioid effect on electrical field stimulation response
[2] = Bioavailability of oxycodone, codeine and dihydrocodeine from their succinyl valine ester prodrugs in the dog (oral gavage, two-way crossover); settings: dogs; for T>50%Cmax of oxycodone: 1 mg free base equivalents oxycodone/kg; for T>50%Cmax of dihydrocodeine: 1 mg free base equivalents dihydrocodeine/kg
Description: The characteristics of the test animals are set out in Table 10, below.
(§1) Blood samples were taken at various times after administration and submitted to analysis for the parent drug and pro-drug using a validated LC-MS-MS assay. Pharmacokinetic parameters derived from the plasma analytical data were determined using Win Nonlin.

[3] = test system: gut motility in the rat; test: Charcoal propulsion test of GI motility in the rat; assay type: in vivo; settings: oral; for delay of the passage of the charcoal meal (gut motility): 30 mg/kg or equimolar dose
Description: Test treatments were administered to groups of up to 10 rats fasted overnight prior to the test.
Test treatments were administered orally 60 minutes prior to a 2.0 mL oral dose of a 10% suspension of charcoal in 5% gum arabic. Thirty minutes after dosing with charcoal, the rats were sacrificed and the entire gastro-intestinal tract quickly and carefully removed. The distance the charcoal meal had traveled from the pyloric sphincter toward the caecum was measured and expressed as a percentage of both the total gut length and the length of the small intestine.

[4] = Comparative pharmacokinetics of oxycodone after oral administration to female Sprague Dawley rats; settings: 10 mg oxycodone free base equivalents/kg; for T>50%Cmax of oxycodone: oral
[5] = Systemic availability of oxycodone after intranasal insufflation to dogs; settings: nominal […] equivalents; for half-life: t½ of intact prodrug
[6] = Comparative oral bioavailability of oxycodone from various dicarboxylate bridged amino acid prodrugs in dogs (nine-way crossover); assay type: in vivo, dog; settings: 1 mg/kg oxycodone free base, mean (±sd)
[7] = Comparative pharmacokinetics of oxycodone in the cynomolgus monkey after oral administration
[8] = In vitro stability of dicarboxylate amino acid ester prodrugs in simulated gastric and intestinal juice, distilled water and pH 10 buffer (HPLC)
[9] = Systemic availability of hydrocodone in dogs after oral administration of hydrocodone or hydrocodone succinyl valine enol ester; settings: 1 mg hydrocodone free base equivalents/kg; for half-life: t½ of hydrocodone
Description: Test substances i.e. hydrocodone or hydrocodone succinyl valine enol ester were administered by oral gavage to a group of five male dogs in a two-way crossover design The characteristics of the test animals are set out in Table 26, below.
as §1

[10] = Plasma pharmacokinetics of meptazinol dicarboxylate linked prodrugs after oral gavage to dogs; assay type: in vivo, dog; settings: dog, plasma, 1 mg meptazinol base equivalents/kg body weight, oral, read-out: expected Cmax of meptazinol after giving the drug itself
[11] = in vivo; cited from earlier work
[12] = cited from earlier work
[13] = rat model; cited from earlier work
[14] = oral prodrug, individual rats, listed as Oxycodone succinyl valine enol ester
[15] = oral gavage, individual dogs 1-5
[16] = male cynomolgus monkeys, oral prodrug, 1 mg oxycodone free base equivalents/kg, individual monkeys 1-5
[17] = male cynomolgus monkeys, oral, 1 mg oxycodone free base equivalents/kg, mean (n=5)
[18] = male dogs, oral, individual dogs 1M-5M

COc1ccc2c3c1O[C@H]1[C@@H](OC(=O)CCC(=O)NC(C(=O)O)C(C)C)C=CC4[C@@H](C2)N(C)CC[C@@]341 (stereo in doubt) [Codeine-[succinyl-(S)-valine] ester, codeine-[succinyl-(S)-valine]ester]
EC50 [1]: 6.3 µM | reduction in potency compared to parent drug ([1]; guinea pig ileal smooth muscle): 50% | T>50%Cmax of codeine ([2]; oral gavage, 1 mg free base equivalents codeine/kg, median (n=5)): 2 h | delay of the passage of the charcoal meal (gut motility) [3]: less than half the amount of codeine

COc1ccc2c3c1O[C@H]1C(OC(=O)CCC(=O)NC(C(=O)O)C(C)C)=CC[C@@]4(O)[C@@H](C2)N(C)CC[C@]314 (stereo in doubt) [oxycodone-[succinyl-(S)-valine] enol ester]
AUC(0-t) ([4]; female, Sprague Dawley, rat, plasma, po, AUCt of intact prodrug, oral prodrug, mean (BLQ taken as zero)): 1.24 ng·h/mL | Cmax ([4]; female, Sprague Dawley, rat, plasma, po, Cmax of intact prodrug, oral prodrug, mean (BLQ taken as zero)): 2.35 ng/mL | Tmax ([4]; female, Sprague Dawley, rat, plasma, po, Tmax of intact prodrug, oral prodrug, median): 22.5 min | AUCt of intact prodrug [4, 14]: 3.53 ng · h/mL and 2.55 ng · h/mL and BLQ (2×) and 0.131 ng · h/mL | Cmax of intact prodrug [4, 14]: 6.77 ng/mL and 2.00 ng/mL and BLQ and 1.93 ng/mL and 1.05 ng/mL | Tmax of intact prodrug [4, 14]: 90 min | T>50%Cmax of oxycodone ([4]; individual rats, listed as Oxycodone succinyl valine enol ester): 11.8 h (2×) and 3.5 h and 3.75 h and 2 h | T>50%Cmax of oxycodone ([4]; median, listed as Oxycodone succinyl valine enol ester): 3.75^a h | T>50%Cmax of oxycodone ([4]; median, listed as oxycodone succinyl valine ester): 3.75 h | AUC ([5]; male, beagle, dog, plasma, other: intranasal insufflation, 0.25 mg oxycodone free base equivalents/kg, AUC of intact prodrug, mean): 10.3 ng·h/mL | AUC(0-t) ([5]; male, beagle, dog, plasma, other: intranasal insufflation, 0.25 mg oxycodone free base equivalents/kg, AUCt of intact prodrug, mean): 5.93 ng·h/mL | Cmax ([5]; male, beagle, dog, plasma, other: intranasal insufflation, 0.25 mg oxycodone free base equivalents/kg, Cmax of intact prodrug, mean): 4.87 ng/mL | Tmax ([5]; male, beagle, dog, plasma, other: intranasal insufflation, 0.25 mg oxycodone free base equivalents/kg, Tmax of intact prodrug, median): 15 min | half-life ([5]; male, beagle, dog, plasma, other: intranasal insufflation, 0.25 mg oxycodone free base equivalents/kg, calculated as ln2/mean k): 45 min | half-life ([5]; male, beagle, dog, plasma, other: intranasal insufflation, 0.25 mg oxycodone free base equivalents/kg, individual dogs): 51 min | Tmax of intact prodrug ([5]; individual dogs): 60 min | EC50 [1]: 2 µM | reduction in the opioid effects compared to oxycodone itself ([1]; guinea pig ileal smooth muscle): 10 fold | T50% Cmax of oxycodone [6]: 1.6 (±0.3) h. | T>50%Cmax of oxycodone [2, 15]: 1.5 h (3×) and 2.5 h (2×) | T>50%Cmax of oxycodone ([2]; oral gavage, median (n=5)): 1.5^a h | period for which plasma concentrations were maintained above 50% of Cmax, compared to the drug itself ([2]; oral, oxycodone in plasma): three times longer | AUCt of intact prodrug [7, 16]: 0.76 ng·h/mL and 1.70 ng·h/mL and 0.39 ng·h/mL and 0.32 ng·h/mL and 0.71 ng·h/mL | Cmax of intact prodrug [7, 16]: 1.29 ng/mL and 2.92 ng/mL and 0.57 ng/mL and 0.42 ng/mL and 1.02 ng/mL | T>50%Cmax of oxycodone ([7]; male cynomolgus monkeys, oral, 1 mg oxycodone free base equivalents/kg, individual monkeys 1-5): 1.54 h and 1.63 h and 3.45 h and 4.43 h and 1.38 h | T>50%Cmax of oxycodone [7, 17]: 2.49 h | T>50%Cmax of oxycodone ([7]; male cynomolgus monkeys, oral, 1 mg oxycodone free base equivalents/kg, mean (n=5), listed as oxycodone succinyl valine ester): 2.5 h | AUC(0-t) ([7]; male, cynomolgus monkey, plasma, po, 1 mg oxycodone base equivalents/kg, AUCt of intact prodrug, male cynomolgus monkeys, oral prodrug, 1 mg oxycodone free base equivalents/kg, mean (n=5)): 0.78 ng·h/mL | Cmax ([7]; male, cynomolgus monkey, plasma, po, 1 mg oxycodone base equivalents/kg, Cmax of intact prodrug, male cynomolgus monkeys, oral prodrug, 1 mg oxycodone free base equivalents/kg, mean (n=5)): 1.24 ng/mL | prodrug Cmax as % of Cmax of the active drug ([7]; monkeys, oral prodrug): ~7% | AUC of oxycodone ([7]; monkeys, oral, 1 mg oxycodone base equivalents/kg): 42.3 ng/h/mL | Simulated gastric fluid (pH 1.1): % remaining after 2 h/37° C. ([8]; pH 1.1, 2 h, 37° C.): 98% | Distilled water (pH 5.9): % remaining after 2 h/20° C. ([8]; pH 5.9, 2 h, 20° C.): 100% | Simulated intestinal fluid (pH 6.8): % remaining after 2 h/37° C. ([8]; pH 6.8, 2 h, 37° C.): 85% | pH 10.0 buffer: % remaining after 2 h/20° C. ([8]; pH 10.0, 2 h, 20° C.): 64% | % change from vehicle-treated animals, small intestine ([3]; 10 mg/kg): −12.1% | % change from vehicle-treated animals, total gut length ([3]; 10 mg/kg): −11.2% | % change from vehicle-treated animals, small intestine ([3]; 30 mg/kg): −15.8% | % change from vehicle-treated animals, total gut length ([3]; 30 mg/kg): −15.6% | delay of the passage of the charcoal meal (gut motility) [3]: ~16% | % change from vehicle-treated animals, small intestine ([3]; 100 mg/kg): −35.4% | % change from vehicle-treated animals, total gut length ([3]; 100 mg/kg): −35.0%

COc1ccc2c3c1O[C@H]1[C@@H](O)CC[C@H]4[C@@H](C2)N(C)CC[C@@]341 [Dihydrocodeine, dihydrocodeine, reference compound]
EC50 [1]: 5 µM | T>50%Cmax of dihydrocodeine [2, 15]: 0.5 h | T>50%Cmax of dihydrocodeine ([2]; oral gavage, median (n=5)): 0.5^a h | T>50%Cmax of dihydrocodeine ([2]; oral gavage, median (n=5), listed as dihydrocodeine): 0.5 h | delay of the passage of the charcoal meal (gut motility) [3]: ~30%

COc1ccc2c3c1O[C@H]1C(=O)CC[C@H]4[C@@H](C2)N(C)CC[C@]314 [Hydrocodone, hydrocodone]
AUC of hydrocodone [9, 18]: 155 ng·h/mL and 111 ng·h/mL and 91.7 ng·h/mL and 71.0 ng·h/mL and 95.3 ng·h/mL | AUCt of hydrocodone [9, 18]: 154 ng·h/mL and 107 ng·h/mL and 89.2 ng·h/mL and 69.7 ng·h/mL and 94.1 ng·h/mL | Cmax of hydrocodone [9, 18]: 119 ng/mL and 76.8 ng/mL and 57.8 ng/mL and 53.3 ng/mL and 71.1 ng/mL | T>50%Cmax of hydrocodone [9, 18]: 0.75 h (3×) and 1.25 h (2×) | t½ of hydrocodone [9, 18]: 1.58 h and 1.66 h (2×) and 1.46 h | T>50%Cmax of hydrocodone ([9]; male dogs, oral, mean): 0.95 h | Tmax of hydrocodone ([9]; male dogs, oral, median): 0.5* h | Tmax ([9]; male, Beagle, dog, plasma, po): 30 min | AUC ([9]; male, Beagle, dog, plasma, po, AUC of hydrocodone, male dogs, mean): 105 ng·h/mL | AUC(0-t) ([9]; male, Beagle, dog, plasma, po, AUCt of hydrocodone, male dogs, mean): 103 ng·h/mL | Cmax ([9]; male, Beagle, dog, plasma, po, Cmax of hydrocodone, male dogs, mean (n=5)): 75.6 ng/mL | half-life ([9]; male, Beagle, dog, plasma, po, male dogs, individual dogs 1M-5M): 78.6 min | half-life ([9]; male, Beagle, dog, plasma, po, male dogs, mean): 92.4 min

CCC1(c2cccc(O)c2)CCCCN(C)C1 (stereo not drawn) [Meptazinol, meptazinol, reference compound]
Cmax [10]: 2 to 5 ng/mL | oral bioavailability [11]: < 10%

COc1ccc2c3c1O[C@H]1C(=O)CC[C@@]4(O)[C@@H](C2)N(C)CC[C@]314.Cl [Oxycodone HCl, oxycodone hydrochloride, reference compound]
T>50%Cmax of oxycodone ([4]; individual rats, hydrochloride): 1.75 h (2×) and 0.75 h (2×) and 0.5 h | T>50%Cmax of oxycodone ([4]; median): 0.75^a h | T50% Cmax of oxycodone [6]: 2.0 (±0.6) h. | T>50%Cmax of oxycodone [2, 15]: 0.5 h | T>50%Cmax of oxycodone ([2]; oral gavage, median (n=5)): 0.5^a h | T>50%Cmax of oxycodone ([7]; male cynomolgus monkeys, oral, 1 mg oxycodone free base equivalents/kg, individual monkeys 1-5, hydrochloride): 1.84 h and 1.18 h and 1.89 h and 2.37 h and 1.79 h | T>50%Cmax of oxycodone [7, 17]: 1.81 h

COc1ccc2c3c1O[C@H]1C(=O)CC[C@@]4(O)[C@@H](C2)N(C)CC[C@]314 [Oxycodone, oxycodone, reference compound]
T>50%Cmax of oxycodone ([4]; median): 0.75 h | T>50%Cmax of oxycodone [7, 17]: 1.8 h | % change from vehicle-treated animals, small intestine ([3]; 10 mg/kg): −15.6% | % change from vehicle-treated animals, total gut length ([3]; 10 mg/kg): −16.0% | % change from vehicle-treated animals, small intestine ([3]; 30 mg/kg): −52.2% | % change from vehicle-treated animals, total gut length ([3]; 30 mg/kg): −52.2% | delay of the passage of the charcoal meal (gut motility) [3]: 52% | % change from vehicle-treated animals, small intestine ([3]; 100 mg/kg): −75.5% | % change from vehicle-treated animals, total gut length ([3]; 100 mg/kg): −76.5%

COc1ccc2c3c1O[C@H]1[C@@H](OC(=O)CCC(=O)N[C@H](C(=O)O)C(C)C)CCC4[C@@H](C2)N(C)CC[C@@]341 (stereo partly drawn) [dihydrocodeine-[succinyl-(S)-valine]ester]
EC50 [1]: 20 µM | T>50%Cmax of dihydrocodeine ([2]; oral gavage, median (n=5)): 2 h | delay of the passage of the charcoal meal (gut motility) [3]: 8.5%

CCC(=O)Oc1ccc2c3c1O[C@H]1[C@@H](O)C=C[C@H]4[C@@H](C2)N(C)CC[C@@]341 [morphine-3-propionate]
half-life of hydrolysis in human plasma [12]: less than 5 minutes

(Z)-3-[2-(propionyloxy)phenyl]-2-propanoic ester
bioavailability over meptazinol itself [13]: significant increase in bioavailability
